US20040229246A1, “Diagnostic markers for therapeutic treatment” (Can-Fite Biopharam Ltd., priority 2002, published 2004)

Tests used:
[1] = tested on: adjuvant induced arthritis; assay: Adjuvant induced arthritis (AIA) in rats, clinical and histological score; format: in vivo
Description: AIA in Rats: Female Lewis rats, aged 8-12 weeks, obtained from Harlan Laboratories (Jerusalem, Israel), were injected subcutaneously (s.c.) at the tail base with 100 μl of suspension composed of incomplete Freund's adjuvant (IFA) with 10 mg/ml heat killed Mycobacterium tuberculosis, (Mt) H37Ra, (Difco, Detroit, USA). To assess the clinical disease activity score, the animals were inspected every second day for clinical arthritis. The scoring system ranged from 0-4 of each limb: 0-no arthritis; 1-redness or swelling of one toe/finger joint; 2-redness and swelling of more than one toe/finger joints; 3-the ankle and tarsal-metatarsal joints involvement; 4-entire paw redness or swelling. The arthritic score was calculated by adding the four individual legs' score to a maximum of 16. For histological scoring, Animals were sacrificed, the legs were removed up to the knee level, fixed in 10% formaldehyde, decalcified, dehydrated, paraffin-embedded, cut into 4 μm sections and stained by Hematoxylin-Eosin. The assessment of all pathologic findings were performed blind using semi-quantitative grading scales of 0 to 4 for the following parameters: a) extent of inflammatory cells' infiltration to the joint tissues; b) synovial lining cell hyperplasia; c) pannus formation; and d) joint cartilage layers destruction. […] TNF-α was measured in synovia, DLN and spleen tissues derived from control and CF101 treated rats. […] Protein concentrations were determined using the Bio-Rad protein assay dye reagent. […] Bands were recorded using BCIP/NBT color development kit (Promega, Madison, Wis., USA). Densitometry of protein expression was normalized against β-actin and expressed as % of control. […]

[2] = tested on: A3AR; assay: RT-PCR detection of A3AR on human neutrophils; format: cell-based; settings: incubated for 15 minutes at 37° C.
Description: Tissue sections (5 μm thick) on slides that, stained by H&E were observed by a pathologist. The neoplastic area and the normal area were detected and each one marked separately. The neoplastic tissue and the normal tissue were collected to different microcentrifuge tubes. The samples were treated with proteinase K at a final concentration of 0.1 mg/ml and incubated at 37° C. for 1 hour to allow for […]. Cells lysate were heated to 95° C. for 15 minutes in order to inactivate DNase and proteinase K. Following centrifugation at 14,000 RPM for 5 minutes, 17 μl of the supernatant was transferred to separate tube and 4 μl of RT mixture. 5 mM dNTPs, 2.5 μM random hexamer, 5 U RNasin, 100 U SuperScript One Step RT-PCR with Platinum Taq (Invitrogene) were added.
The RT reaction was performed at 45° C. for 45 minutes. […]
10×10^6 neutrophil cells isolated from 20 ml of human blood were incubated for 15 minutes with […] of CF101 at 37° C. […] RNA level was quantified using spectrophotometer and […] from each sample were subjected to RT-PCR using SuperScript One Step RT-PCR with Platinum Taq (Invitrogene), as described above in section E., by using the set No II as primers for amplification of 361 bp fragment. RT-PCR products were detected by electrophoresis and the size was verified by comparing with known RNA. […]

[3] = tested on: A3AR, A2AR, PI3K, PKB/Akt, IKKα/β, NF-κB, TNF-α, GSK-3β, caspase-3; assay: Western blot of A3AR and downstream signaling proteins in DLN and synovial tissue of AIA rats; format: in vivo
Description: AIA in Rats: Female Lewis rats, aged 8-12 weeks, obtained from Harlan Laboratories (Jerusalem, Israel), were injected subcutaneously (s.c.) at the tail base with 100 μl of suspension composed of incomplete Freund's adjuvant (IFA) with 10 mg/ml heat killed Mycobacterium tuberculosis, (Mt) H37Ra, (Difco, Detroit, USA). To assess the clinical disease activity score, the animals were inspected every second day for clinical arthritis. The scoring system ranged from 0-4 of each limb: 0-no arthritis; 1-redness or swelling of one toe/finger joint; 2-redness and swelling of more than one toe/finger joints; 3-the ankle and tarsal-metatarsal joints involvement; 4-entire paw redness or swelling. The arthritic score was calculated by adding the four individual legs' score to a maximum of 16. For histological scoring, Animals were sacrificed, the legs were removed up to the knee level, fixed in 10% formaldehyde, decalcified, dehydrated, paraffin-embedded, cut into 4 μm sections and stained by Hematoxylin-Eosin. The assessment of all pathologic findings were performed blind using semi-quantitative grading scales of 0 to 4 for the following parameters: a) extent of inflammatory cells' infiltration to the joint tissues; b) synovial lining cell hyperplasia; c) pannus formation; and d) joint cartilage layers destruction. A fifth parameter, bone damage and erosion, was graded 0-5: 0-normal; 1-minimal loss of cortical bone at a few sites; 2-mild loss of cortical trabecular bone; 3-moderate loss of bone at many sites; 4-marked loss of bone at many sites; 5-marked loss of bone at many sites with fragmenting and full thickness penetration of inflammatory process or pannus into the cortical bone The mean of all the histological parameters scores were designated “Histology Score”. TNF-α was measured in synovia, DLN and spleen tissues derived from control and CF101 treated rats. To detect the level of expression of TNF-α, WB analysis was performed. Spleen and DLN mononuclear cells and synovial tissue were rinsed with ice-cold PBS and transferred to ice-cold lysis buffer (TNN buffer, 50 mM Tris buffer pH=7.5, 150 mM NaCl, NP 40 0.5% for 20 minutes). Cell debris was removed by centrifugation for 10 minutes, at 7500 g. The supernatant was utilized for WB analysis. Protein concentrations were determined using the Bio-Rad protein assay dye reagent. Equal amounts of the sample (50 μg) were separated by SDS-PAGE, using 12% polyacrylamide gels. The resolved proteins were then electro-blotted onto nitrocellulose membranes (Schleicher & Schuell, Keene, NH, USA). Membranes were blocked with 1% bovine serum albumin and incubated with polyclonal goat anti-rat TNF-α antibodies (dilution 1:1000) (Santa Cruz Biotechnology Inc., CA, USA) for 24 hours at 4° C. Blots were then washed and incubated with rabbit anti-goat polyclonal antibodies for 1 hour at room temperature. Bands were recorded using BCIP/NBT color development kit (Promega, Madison, Wis., USA). Densitometry of protein expression was normalized against β-actin and expressed as % of control.
Adjuvant induced arthritis (AIA) was induced in rats as described above. Rats were treated orally twice daily with either (i) vehicle (these rats serving as control), (ii) 10 μg/kg IB-MECA or with (ii) the specific A3AR […] MRS 1220 followed 30 minutes later by IB-MECA. The […] were sacrificed on day 28 for histological scoring and measurement of signaling proteins and TNF-α.

CNC(=O)[C@H]1O[C@@H](n2cnc3c(NCc4cccc(I)c4)ncnc32)[C@H](O)[C@@H]1O [IB-MECA, 1-deoxy-1-[6[[(3-iodophenyl)methyl]amino]-9H-purine-9-yl]-N-methyl-β-D-ribofura-nuronaminde]
clinical score (inflammatory response) ([1]; 10 μg/kg orally twice daily, versus vehicle): anti-inflammatory response
histological score ([1]; day 28, versus control): anti-inflammatory activity
expression of A3AR (RT-PCR) [2]: increase
GSK-3β level ([3]; DLN): up-regulation
PI3K level ([3]; DLN): down-regulation
caspase-3 level ([3]; DLN): up-regulation
IKKα/β level ([3]; DLN and synovial tissue): down-regulation
NF-κB level ([3]; DLN and synovial tissue): down-regulation
TNF-α level ([3]; DLN and synovial tissue): down-regulation
level of the A2 adenosine receptor (A2AR) ([3]; DLN, Western blot): no effect
level of the A3AR ([3]; DLN, Western blot): down-regulation
PKB/Akt level ([3]; DLN, protein expression and activity): down-regulation
